In ChEMBL document CHEMBL1149172, “BREED: Generating novel inhibitors through hybridization of known ligands. Application to CDK2, p38, and HIV protease” (J Med Chem, 2004):

Target: Human immunodeficiency virus type 1 protease (Human immunodeficiency virus 1, UniProt Q72874)
Test: Inhibitory activity against HIV-I protease was determined

Question: For `CC(C)CN(C[C@@H](O)[C@H](Cc1ccccc1)NC(=O)[C@H](CC(N)=O)NC(=O)c1ccc2ccccc2n1)S(=O)(=O)N1ONc2ccccc21`, which Ki is on record?
Answer: The Ki was 0.1 nM.

Question: `CC(C)CN(C[C@@H](O)[C@H](Cc1ccccc1)NC(=O)O[C@H]1CCOC1)S(=O)(=O)NC(C)(C)C` was tested. Which Ki did it give?
Answer: Its Ki is 42 nM.
